According to patent US5071957A, “Antibiotic BU-4061T” (Bristol-Myers Company, priority 1990, dated 1991):
Values after ≈ are worked out from the molar mass of the structure shown.

Legend:
[1] = system: Moser (human colorectal carcinoma) cells; assay: In vitro cytotoxicity against Moser cells; assay type: cell-based
Experimental: (§1) B16-F10 (murine melanoma) and Moser (human colorectal carcinoma) cells were grown to the logarithmic phase in the enriched Eagle minimum essential medium supplemented with fetal calf serum (FCS, 10%) and kanamycin (60 μg/ml), while HCT-116 (human colon carcinoma) was grown in McCoy's 5A medium supplemented with FCS (10%) penicillin (100 μ/ml) and streptomycin (100 μg/ml). B16-F10, Moser and HCT-116 cells were harvested and implanted into wells of a 96-well microtiter plate with test materials at the inoculum sizes of 3×10^4, 6×10^4 and 6×10^4 cells/ml, respectively. They were incubated at 37° C. in a humidified atmosphere of 5% CO2 and 95% air for 72 hours. The cytotoxicity against tumor cells was determined colorimetrically at 540 nm after staining viable cells.

[2] = system: B16-F10 (murine melanoma) cells; assay: In vitro cytotoxicity against B16-F10 cells; assay type: cell-based; conditions: 72 hours, colorimetric at 540 nm
Experimental: as §1

[3] = system: HCT-116 (human colon carcinoma); assay: In vitro cytotoxicity against HCT-116 cells; assay type: cell-based; conditions: 72 hours, colorimetric at 540 nm
Experimental: as §1

[4] = system: P388 leukemia; assay: Antitumor activity against P388 leukemia (ip); conditions: Q1D × 9
Experimental: (§2) To determine in vivo antitumor activity of BU-4061T, male BDF1 mice were intraperitoneally inoculated with 0.5 ml of 10% melanotic melanoma B16 brei, and female CDF1 mice were intraperitoneally inoculated with 0.4 ml of diluted ascitic fluid containing 10^6 lymphocytic leukemia P388 cells. […] Test materials were intraperitoneally administered to mice on days 1, 5 and 9 (Q4D×3) or on days 1 to 9 (QlD×9).

[5] = system: B16 melanoma; assay: Antitumor activity against B16 melanoma (ip)
Experimental: as §2

[6] = system: DNA synthesis in B16-F10 melanoma cells; assay: Inhibition of DNA synthesis (3H-thymidine incorporation) in B16-F10 melanoma cells; assay type: cell-based, murine
Experimental: (§3) Inhibitory effects of BU-4061T on the macromolecule (DNA, RNA and protein) synthesis were determined in cultured B16-F10 melanoma cells. B16-F10 cells (10^5 cells/ml) were incubated with the compound at 37° C. for 4.5 hours (for DNA synthesis) or 4 hours (for RNA and protein synthesis). Labelled precursor, ^3 H-thymidine, ^14 C-uridine or ^3 H-leucine was added to the culture and further incubated for 30 minutes (for DNA) or 60 minutes (for RNA and protein). After washing with chilled 5% trichloroacetic acid solution, the radioactivity incorporated into the acid-insoluble fraction of the tumor cells was determined by a liquid scintillation counter.

[7] = Solubility (physico-chemical properties); assay type: physicochemical
Source text: BU-4061T was obtained as a white amorphous powder. […] BU-4061T gave positive response to iodine vapor, ammonium molybdate-sulfuric acid solution and Rydon-Smith reagent, but negative response to ninhydrin and anthrone reagent.

[8] = system: protein synthesis in B16-F10 melanoma cells; assay: Inhibition of protein synthesis (3H-leucine incorporation) in B16-F10 melanoma cells; assay type: cell-based, murine
Experimental: as §3

[9] = system: RNA synthesis in B16-F10 melanoma cells; assay: Inhibition of RNA synthesis (14C-uridine incorporation) in B16-F10 melanoma cells; assay type: cell-based, murine
Experimental: as §3

With `CC[C@H](C)[C@H](NC(=O)[C@H]([C@@H](C)CC)N(C)C(C)=O)C(=O)N[C@H](C(=O)N[C@@H](CC(C)C)C(=O)[C@@]1(C)CO1)[C@@H](C)O` [BU-4061T] the “IC50 Moser” value ([1]; 72 hours, colorimetric at 540 nm) was 0.17 µg/mL (≈ 0.306 µM), the “cytotoxicity against Moser cells (in words)” value ([1]; compared with B16-F10 and HCT-116 cells) was “weaker than that against B16-F10 and HCT-116 cells” and the “IC50 B16-F10” value [2] was 0.0047 µg/mL (≈ 0.00847 µM). For the same molecule, the “IC50 HCT-116” value [3] was 0.0067 µg/mL (≈ 0.0121 µM), the “MST (median survival time)” value ([4]; 0.063 mg/kg/day ip) was 10.5 days and the T/C ([4]; 0.063 mg/kg/day ip) was 105%. For the same molecule, the “MST (median survival time)” value ([4]; 0.13 mg/kg/day ip) was 11.0 days, the T/C ([4]; 0.13 mg/kg/day ip) was 110% and the “MST (median survival time)” value ([4]; 0.25 mg/kg/day ip) was 11.5 days. For the same molecule, the T/C ([4]; 0.25 mg/kg/day ip) was 115%, the “MST (median survival time)” value ([4]; 0.5 mg/kg/day ip) was 13.0 days and the “MST (median survival time)” value ([4]; 1 mg/kg/day ip) was 10.5 days. The T/C ([4]; 1 mg/kg/day ip) was 105%, the “MST (median survival time)” value ([5]; 0.063 mg/kg/day ip, Q1D × 9) was 15.5 days and the T/C ([5]; 0.063 mg/kg/day ip, Q1D × 9) was 119%. For the same molecule, the “MST (median survival time)” value ([5]; 0.13 mg/kg/day ip, Q1D × 9) was 16.0 days, the T/C ([5]; 0.13 mg/kg/day ip, Q1D × 9) was 123% and the “MST (median survival time)” value ([5]; 0.25 mg/kg/day ip, Q1D × 9) was 18.0 days. The “MST (median survival time)” value ([5]; 0.25 mg/kg/day ip, Q4D × 3) was 14.5 days, the T/C ([5]; 0.25 mg/kg/day ip, Q4D × 3) was 112% and the “MST (median survival time)” value ([5]; 0.5 mg/kg/day ip, Q1D × 9) was 19.5 days. The “MST (median survival time)” value ([5]; 0.5 mg/kg/day ip, Q4D × 3) was 15.5 days, the T/C ([5]; 0.5 mg/kg/day ip, Q4D × 3) was 119% and the “MST (median survival time)” value ([5]; 1 mg/kg/day ip, Q1D × 9) was 19.0 days. For the same molecule, the “MST (median survival time)” value ([5]; 1 mg/kg/day ip, Q4D × 3) was 15.5 days, the T/C ([5]; 1 mg/kg/day ip, Q4D × 3) was 119% and the “MST (median survival time)” value ([5]; 2 mg/kg/day ip, Q4D × 3) was 17.0 days. The “MST (median survival time)” value ([5]; 4 mg/kg/day ip, Q4D × 3) was 16.5 days, the “antitumor activity against B16 melanoma (in words)” value ([5]; ip, either Q4D×3 or Q1D×9 treatment schedule) was “significant antitumor activities” and the “inhibitory effect on DNA synthesis (in words)” value [6] was “moderate inhibitory effects”. The “IC50 DNA” value ([6]; 4.5 hours + 30 minutes 3H-thymidine) was 16 µg/mL, the “solubility in ethyl acetate” value ([7]; ethyl acetate) was “readily soluble” and the solubility in methanol ([7]; methanol) was “readily soluble”. For the same molecule, the “solubility in methylene chloride” value ([7]; methylene chloride) was “readily soluble”, the solubility in water ([7]; water) was “practically insoluble” and the “inhibition of incorporation of leucine into the protein fraction (in words)” value ([8]; 100 μg/ml, the highest concentration tested) was “did not significantly inhibit”. For the same molecule, the “IC50 Protein” value ([8]; B16-F10 cells, 4 hours + 60 minutes 3H-leucine) was greater than 100 µg/mL, the “inhibitory effect on RNA synthesis (in words)” value [9] was “moderate inhibitory effects” and the “IC50 RNA” value ([9]; 4 hours + 60 minutes 14C-uridine) was 46 µg/mL.

For `CO[C@@]12[C@H](COC(N)=O)C3=C(C(=O)C(C)=C(N)C3=O)N1C[C@@H]1N[C@@H]12` [Mitomycin C, mitomycin C], the “Body Wt. change on day 4” value ([4]; 0.063 mg/kg/day ip) was “+0.8 g”, the “MST (median survival time)” value ([4]; 0.063 mg/kg/day ip) was 11.0 days and the T/C ([4]; 0.063 mg/kg/day ip) was 110%. For the same molecule, the “Body Wt. change on day 4” value ([4]; 0.13 mg/kg/day ip) was “+1.3 g”, the “MST (median survival time)” value ([4]; 0.13 mg/kg/day ip) was 12.0 days and the T/C ([4]; 0.13 mg/kg/day ip) was 120%. For the same molecule, the “Body Wt. change on day 4” value ([4]; 0.25 mg/kg/day ip) was “+1.0 g”, the “MST (median survival time)” value ([4]; 0.25 mg/kg/day ip) was 13.0 days and the “Body Wt. change on day 4” value ([4]; 0.5 mg/kg/day ip) was 0.0 g. For the same molecule, the “MST (median survival time)” value ([4]; 0.5 mg/kg/day ip) was 15.5 days, the “Body Wt. change on day 4” value ([4]; 1 mg/kg/day ip) was -0.8 g and the “MST (median survival time)” value ([4]; 1 mg/kg/day ip) was 17.0 days. The “Body Wt. change on day 5” value ([5]; 0.3 mg/kg/day ip, Q4D × 3) was -0.3 g, the “MST (median survival time)” value ([5]; 0.3 mg/kg/day ip, Q4D × 3) was 13.0 days and the T/C ([5]; 0.3 mg/kg/day ip, Q4D × 3) was 100%. The “Body Wt. change on day 5” value ([5]; 1 mg/kg/day ip, Q4D × 3) was -0.8 g, the “MST (median survival time)” value ([5]; 1 mg/kg/day ip, Q4D × 3) was 18.0 days and the “Body Wt. change on day 5” value ([5]; 3 mg/kg/day ip, Q4D × 3) was -0.3 g. The “MST (median survival time)” value ([5]; 3 mg/kg/day ip, Q4D × 3) was 28.0 days.
